Source: patent publication US4374144A, “β-Lactam compounds, their preparation and use” (Beecham Group Limited, priority 1978, dated 1983)
Read-outs that look alike come from different tables or passages of the source.

Experiments:
[1] = target: β-Lactamase from Klebsiella aerogenes E70; assay: β-Lactamase inhibition, chromogenic cephalosporin substrate; type: biochemical; settings: 5 min preincubation, pH 7.3, 37° C.
Experimental: (§1) I50 values for certain compounds of the invention against various β-lactamases were determined as follows:
(§2) Enzyme (0.2 ml) and inhibitor solution (10 μl) were incubated at pH 7.3, 37° C. for 5 minutes. Substrate (0.2 ml), which was the chromogenic cephalosporin described by O'Callaghan, Morris, Kirby and Shingler, Antimicrobial Agents and Chemotherapy, vol. 1, no. […] After a further five minutes (37° C. at pH 7.3) the reaction was diluted with 1.6 ml of water and absorbance at 482 nm recorded instantly. […] Levels of inhibition were measured against a control reaction with no added inhibitor (10 μl buffer).

[2] = target: T1, β-Lactamase from E. coli JT4 (Escherichia coli, UniProt P62593); assay: as above; type: biochemical; settings: 5 min preincubation, pH 7.3, 37° C., read-out: I50 (converted)
T1 construct: β-Lactamase from; endogenous in cells; host or cells: E. coli JT4
T1 sequence (P62593 24-286 limits assumed): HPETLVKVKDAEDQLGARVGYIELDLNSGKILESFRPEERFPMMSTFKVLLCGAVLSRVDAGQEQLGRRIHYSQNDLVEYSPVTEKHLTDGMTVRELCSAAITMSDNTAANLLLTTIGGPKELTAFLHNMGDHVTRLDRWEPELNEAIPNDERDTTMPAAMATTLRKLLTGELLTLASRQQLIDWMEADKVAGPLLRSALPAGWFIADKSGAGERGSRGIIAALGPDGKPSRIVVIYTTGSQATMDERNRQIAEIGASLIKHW
Experimental: as §1, §2

E. coli JT39 = assay: MIC, DST agar + 10% horse blood; type: cell-based; settings: Escherichia coli
Experimental: (§3) The minimum inhibitory concentrations (MIC) of certain compounds of the invention were determined against a range of organisms.
(§4) of 0.001 ml of a 10^-2 dilution for Grampositive bacteria or a
(§5) 10^-4 dilution for Gramnegative bacteria).

Staph. aureus Russell = assay: MIC, DST agar + 10% horse blood; type: cell-based; settings: Staphylococcus aureus
Experimental: as §3, §4, §5

Staph. aureus Oxford = assay: MIC, DST agar + 10% horse blood; type: cell-based; settings: Staphylococcus aureus
Experimental: as §3, §4, §5

Proteus mirabilis C977 = assay: MIC, DST agar + 10% horse blood; type: cell-based
Experimental: as §3, §4, §5

Shigella sonnei MB11967 = assay: MIC, DST agar + 10% horse blood; type: cell-based
Experimental: as §3, §4, §5

[3] = system: Salmonella typhimurium CT10; assay: MIC, DST agar + 10% horse blood; type: cell-based; settings: Salmonella enterica
Experimental: as §3, §4, §5

Klebsiella aerogenes A = assay: MIC, DST agar + 10% horse blood; type: cell-based
Experimental: as §3, §4, §5

Bacillus subtilis A = assay: MIC, DST agar + 10% horse blood; type: cell-based
Experimental: as §3, §4, §5

[4] = system: Streptococcus pyogenes CN10; assay: MIC, DST agar + 10% horse blood; type: cell-based
Experimental: as §3, §4, §5

E. coli 0111 = assay: MIC, DST agar + 10% horse blood; type: cell-based; settings: Escherichia coli
Experimental: as §3, §4, §5

Citrobacter freundii E8 = assay: MIC, DST agar + 10% horse blood; type: cell-based
Experimental: as §3, §4, §5

[5] = target: T2, β-Lactamase from Staphylococcus aureus Russell (Staphylococcus aureus, UniProt P00807); assay: β-Lactamase inhibition, chromogenic cephalosporin substrate; type: biochemical; settings: 5 min preincubation, pH 7.3, 37° C., read-out: I50 (converted)
T2 construct: β-Lactamase from; endogenous in cells; host or cells: Staphylococcus aureus Russell
T2 sequence (P00807 25-281): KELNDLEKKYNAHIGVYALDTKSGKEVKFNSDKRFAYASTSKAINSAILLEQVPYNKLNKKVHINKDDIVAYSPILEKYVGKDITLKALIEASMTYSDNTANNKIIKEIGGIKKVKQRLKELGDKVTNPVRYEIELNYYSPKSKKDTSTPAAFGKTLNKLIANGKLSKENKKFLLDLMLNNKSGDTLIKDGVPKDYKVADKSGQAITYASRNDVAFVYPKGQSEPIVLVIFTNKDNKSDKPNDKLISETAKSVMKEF
Experimental: as §1
(§6) Enzyme (0.2 ml) and inhibitor solution (10 μl) were incubated at pH 7.3, 37° C. for 5 minutes. Substrate (0.2 ml), which was the chromogenic cephalosporin described by O'Callaghan, Morris, Kirby and Shingler, Antimicrobial Agents and Chemotherapy, vol. 1, no. 4, 283-288 (1972), was added to give a final concentration of 250 μg/ml. After a further five minutes (37° C. at pH 7.3) the reaction was diluted with 1.6 ml of water and absorbance at 482 nm recorded instantly. The enzyme level was sufficient to hydrolyse 75% of the substrate in 5 minutes. Levels of inhibition were measured against a control reaction with no added inhibitor (10 μl buffer). I50 values quoted are the concentrations required to give 50% inhibition of substrate hydrolysis under the conditions described and are the concentrations of inhibitor present with the enzyme prior to the addition of the substrate.

[6] = target: T3, β-Lactamase from Enterobacter cloacae P99 (Enterobacter cloacae, UniProt P05364); assay: as above; type: biochemical; settings: 5 min preincubation, pH 7.3, 37° C., read-out: I50 (converted)
T3 construct: β-Lactamase from; endogenous in cells; host or cells: Enterobacter cloacae P99
T3 sequence (P05364 21-381): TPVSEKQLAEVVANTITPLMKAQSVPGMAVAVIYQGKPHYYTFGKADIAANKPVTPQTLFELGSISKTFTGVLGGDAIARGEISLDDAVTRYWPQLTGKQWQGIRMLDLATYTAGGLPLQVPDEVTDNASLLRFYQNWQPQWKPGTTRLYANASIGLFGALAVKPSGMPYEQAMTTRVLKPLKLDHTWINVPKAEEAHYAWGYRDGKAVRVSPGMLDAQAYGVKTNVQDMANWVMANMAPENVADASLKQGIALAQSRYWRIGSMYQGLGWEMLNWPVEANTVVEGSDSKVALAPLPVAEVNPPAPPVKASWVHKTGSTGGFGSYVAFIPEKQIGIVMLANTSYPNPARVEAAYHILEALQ
Experimental: as §1, §6

[7] = E. coli JT39, inoculum 0.001 ml of 10^-4 dilution, read-out: MIC
[8] = Staph. aureus Russell, inoculum 0.001 ml of 10^-2 dilution, read-out: MIC
[9] = Staph. aureus Oxford, inoculum 0.001 ml of 10^-2 dilution, read-out: MIC
[10] = Proteus mirabilis C977, inoculum 0.001 ml of 10^-4 dilution, read-out: MIC
[11] = Shigella sonnei MB11967, inoculum 0.001 ml of 10^-4 dilution, read-out: MIC
[12] = Salmonella typhimurium CT10, inoculum 0.001 ml of 10^-4 dilution, read-out: MIC
[13] = Klebsiella aerogenes A, inoculum 0.001 ml of 10^-4 dilution, read-out: MIC
[14] = Streptococcus pyogenes CN10, inoculum 0.001 ml of 10^-2 dilution, read-out: MIC
[15] = E. coli 0111, inoculum 0.001 ml of 10^-4 dilution, read-out: MIC
[16] = Citrobacter freundii E8, inoculum 0.001 ml of 10^-4 dilution, read-out: MIC

SMILES | MIC (Staph. aureus Russell) [µg/mL] | MIC (Staph. aureus Oxford) [µg/mL] | MIC (Proteus mirabilis C977; Proteus mirabilis, C977) [µg/mL] | MIC ([3]; TYPHIMURIUM) [µg/mL] | MIC (Klebsiella aerogenes A; Klebsiella aerogenes) [µg/mL] | MIC (Bacillus subtilis A; Bacillus subtilis) [µg/mL] | MIC ([4]; Streptococcus pyogenes, CN10) [µg/mL] | MIC (Citrobacter freundii E8; Citrobacter freundii, E8) [µg/mL] | IC50 [5] [nM] | IC50 [6] [nM] | MIC (E. coli JT39; [7]) [µg/mL] | MIC (Staph. aureus Russell; [8]) [µg/mL] | MIC (Staph. aureus Oxford; [9]) [µg/mL] | MIC (Proteus mirabilis C977; [10]) [µg/mL] | MIC (Shigella sonnei MB11967; [11]) [µg/mL] | MIC [3, 12] [µg/mL] | MIC (Klebsiella aerogenes A; [13]) [µg/mL] | MIC [4, 14] [µg/mL] | MIC (E. coli 0111; [15]) [µg/mL] | MIC (Citrobacter freundii E8; [16]) [µg/mL] | also measured
CC(=O)N/C=C\SC1=C(C(=O)[O-])N2C(=O)[C@H]([C@H](C)O)[C@H]2C1.[Na+] | 0.5 | 0.5 | 25 | 5 | 5 | 5 | 0.5 | 2.5 | ~8970 | 17.9 |  |  |  |  |  |  |  |  |  |  | I50 [1]: 0.1 µg/mL; IC50 [2]: 150 nM; MIC (E. coli JT39; JT39): 10 µg/mL; MIC (Shigella sonnei MB11967; Shigella sonnei, MB11967): 10 µg/mL; MIC (E. coli 0111; 0111): 5 µg/mL
CC(=O)N/C=C\SC1=C(C(=O)OCc2ccc([N+](=O)[O-])cc2)N2C(=O)[C@H]([C@H](C)O)[C@H]2C1 [Example 2, p-Nitrobenzyl (5R, 6S)-3-[(Z)-2-acetamidoethenylthio]-6-[(S)-1-hydroxyethyl]-7-oxo-1-azabicyclo[3.2.0]hept-2-ene-2-carboxylate] |  |  |  |  |  | 0.5 |  |  |  |  | > 50 | 1.2 | 0.5 | 5 | 2.5 | 2.5 | 2.5 | ≤ 0.1 | 2.5 | 5 | 
CC(=O)N/C=C\SC1=C(C(=O)[O-])N2C(=O)[C@@H]([C@H](C)O)[C@H]2C1.[Na+] [Example 5, Sodium (5R, 6R)-3-[(Z)-2-acetamidoethenylthio]-6-[(S)-1-hydroxyethyl]-7-oxo-1-azabicyclo[3.2.0]hept-2-ene-2-carboxylate] | 0.5 | 0.2 | 1 | 1 | 1 | 0.1 | ≤ 0.02 | 1 |  |  | 10 |  |  |  | 1 |  |  |  | 1 |  | 
CC(=O)N/C=C\SC1=C(C(=O)O)N2C(=O)[C@@H]([C@H](C)OS(=O)(=O)O)[C@H]2C1 [Example 8, Disodium (5R, 6R)-3-[(Z)-2-acetamidoethenylthio]-6-[(S)-1-sulphatoethyl]-7-oxo-1-azabcicyclo[3.2.0]hept-2-ene-2-carboxylate] |  |  |  |  |  |  |  |  | 637 | 7.65 | 2.5 | 1.2 | 1.2 | 1.2 | 1.2 | 1.2 | 0.5 | 0.2 | 1.2 | 1.2 | MIC (Bacillus subtilis A; Bacillus subtilis A, inoculum 0.001 ml of 10^-2 dilution, read-out: MIC): 1.2 µg/mL
